According to patent US20230265378A1, “STIMULATING CELLULAR PRODUCTION OF EXOSOMES” (ROYAL MELBOURNE INSTITUTE OF TECHNOLOGY, priority 2020, published 2023):
Counter-ions that a name gives are not always drawn.

Tests used:
[1] = tested on: cells; details: within 2 to 72 hrs; dose dependent; cited from earlier work
[2] = tested on: intracellular Ca^2+; experiment: Calcium influx study, intracellular Ca^2+ levels by Fura-2 AM assay; assay type: cell-based; details: amiloride HCl 100 μM 60 mins, thapsigargin 100 nM 25 mins, BAPTA-AM 10 μM 25 mins, in combinations; FIG. 9a iv, v, vi
Protocol: The data are represented in terms of the mean value±the standard error over quadruplicate runs, and the asterisks *, **, *** and **** indicate statistically significant differences with p<0:05, p<0:01, p<0:001 and p<0:0001, respectively.
The cells were seeded at a density of 0:05×10^6 cells per well in a 24-well glass-bottom plate and incubated at overnight in a humidified incubator. After incubation, they were treated with combinations of amiloride HCl (100 μM, for 60 mins)—a Ca^2+ ion channel blocker, thapsigargin (100 nM, for 25 mins)—an endoplasmic reticulum calcium ion inhibitor, and, BAPTA-AM (10 μM, for 25 mins)—a membrane permeable calcium chelator that removes intracellular calcium, following which they were incubated in the presence of 10 μM Fura2-AM for 60 mins at 37° C. to measure the intracellular Ca^2+ levels. The cells were then washed to remove the extracellular dye and replenished with DMEM, taking care to protect them from exposure to light. The media devoid of calcium from the inhibitor-treated cells was subsequently replaced with media containing calcium, and, where appropriate, exposed to the SRBW insonation (i.e. acoustic stimulation). Changes in the fluorescence intensity were measured with a spectrophotometric plate reader (CLARIOstar®, BMG LabTech, Mornington, VIC, Australia).

Compound	enhancing exosome yield [1]	effect on intracellular calcium store [2]
C[C@H](CCC(=O)O)C[C@H](C)C[C@H](C)C(=O)/C=C(\O)[C@H](C)C[C@H](C)C/C=C/[C@@H](C)[C@@H](O)[C@@H](C)[C@@H](O)C[C@@H]1CC[C@@](C)([C@H]2CC[C@@](C)([C@@H](C)O)O2)O1 [ionomycin]	two-and-one-half-fold	
C/C=C(/C)C(=O)O[C@H]1C(C)=C2[C@H]([C@@H]1OC(=O)CCCCCCC)[C@@](C)(OC(C)=O)C[C@H](OC(=O)CCC)[C@@]1(O)[C@H]2OC(=O)[C@@]1(C)O [thapsigargin]		deplete the intracellular calcium store
N=C(N)NC(=O)c1nc(Cl)c(N)nc1N [amiloride HCl, amiloride hydrochloride]		deplete the intracellular calcium store
calcium phosphate	two-and-one-half-fold	
